From patent publication US20220194939A1, “Novel compounds and methods of use treating fructose-related disorders or diseases” (Colorado Research Partners, LLC, priority 2019, published 2022) come the findings set out here.

Counter-ions that a name gives are not always drawn.

The assay deals with T1, KHK (Homo sapiens, UniProt P50053).
T1 construct: (His)6 tag (N); thrombin cleavage site (N); made in house; host or cells: E. coli BL-21 (DE3)
T1 sequence (P50053 1-298): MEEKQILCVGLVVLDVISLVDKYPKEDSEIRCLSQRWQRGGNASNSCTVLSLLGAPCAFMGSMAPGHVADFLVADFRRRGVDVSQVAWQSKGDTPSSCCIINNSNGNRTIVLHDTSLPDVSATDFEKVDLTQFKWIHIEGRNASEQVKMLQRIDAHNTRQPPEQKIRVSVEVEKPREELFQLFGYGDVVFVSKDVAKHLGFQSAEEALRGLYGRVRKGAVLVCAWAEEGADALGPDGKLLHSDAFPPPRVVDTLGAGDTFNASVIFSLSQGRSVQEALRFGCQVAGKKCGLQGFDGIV
Description: coupled enzyme assay for KHK activity. It counts as biochemical. The settings on record: purified human recombinant KHK, PK/LDH coupled assay, A340 at 25° C., 0.1 mM ATP, 0.2 mM fructose; isoform (KHK-C or KHK-A) not given. The source says:
Specific coupled enzyme screening assays were developed for KHK-C and KHK-A using recombinant proteins. Purified human recombinant KHK-C and KHK-A were produced using by expression in E. coli BL-21 (DE3) using IPTG induction as a His-tagged fusion proteins and purified using Ni-NTA chromatography on His-Trap FF columns. For KHK-C, the coding region from NCBI refseq number NM_006488 was inserted at the Nde I site of pET28a(+) vector, which puts it downstream from an amino-terminal (His)6 tag and a thrombin cleavage site. The same was done for KHK-A using the coding regions from NCBI refseq number NM_000221.2. The protein was expressed in BL-21 (DE3) using IPTG induction and purified using Ni-NTA (GE His Trap FF) column. The protein was washed with 100 column volumes, eluted with 3 column volumes, and dialyzed with HEPES, pH 7.4 buffers containing 20, 500, and 0 mM imidazole, respectively. The dialysate was concentrated by ultrafiltration (10kD MWCO) to >15 mg/mL protein. The protein prep was >95% pure on SDS-PAGE and the molecular weight was confirmed by relative mobility to be 33,730 Da (34,826 expected).
The assay uses the product of the KHK reaction, ADP, to drive a signal measured in real time for measuring the reaction rate. This consists of a 3-step, coupled-enzyme process by which pyruvate kinase (PK), which converts the ADP from the KHK reaction along with phosphoenolpyruvate (PEP) to ATP and pyruvate, respectively. The pyruvate is converted along with NADH to lactate and NAD+ by lactate dehydrogenase (LDH). The disappearance of NADH is measured kinetically by monitoring A340 at 25° C. for 15 minutes. The enzymatic assay was carried out in a total reaction volume of 200 μL containing 33 mM triethanolamine-HCl, pH 7.4, 6 mM MgCl2, 100 mM KCl, 0.1 mM ATP, 1.33 mM PEP, 0.3 mM NADH, 0.2-1.0 U of PK, 0.2-1.0 U of LDH, and 150-240 nM KHK-C or KHK-A (0.01-0.02 U). Fructose was added to initiate the reactions to 0.2 mM, except for the no fructose controls which utilized water. This high-throughput assay was used to identify inhibitors that have an IC50 value<1 μM for KHK-C and to confirm that those values for KHK-A were not more than 2-fold lower.
As for `Cc1cccc(-n2ncc3ccc(NC(=O)C(N)C(N)=O)cc32)c1` (stereo not drawn) [Compound 38, 2-amino-N1-(1-(m-tolyl)-1H-indazol-6-yl)malonamide hydrochloride], the half-maximal inhibitory concentration (IC50) was determined as 1.4 µM. Turning to `Cc1cccc(-n2ncc3cc(C)c(NC(=O)[C@@H](N)CO)cc32)c1` [Compound 42, (S)-2-amino-3-hydroxy-N-(5-methyl-1-(m-tolyl)-1H-indazol-6-yl)propanamide hydrochloride], the 50% inhibitory concentration (IC50) was found to be 1.8 µM. With `CCCCCCCC(=O)OC[C@H](NC(=O)OCC)C(=O)Nc1ccc2cnn(-c3cccc(C)c3)c2c1` [Compound 34, (S)-2-((ethoxycarbonyl)amino)-3-oxo-3-((1-(m-tolyl)-1H-indazol-6-yl)amino)propyl octanoate], the 50% inhibitory concentration (IC50) is above 1000 µM.

Regarding `Cc1cccc(-n2ncc3ccc(NC(=O)[C@H](N)CCO)cc32)c1` [Compound 12, (R)-2-amino-4-hydroxy-N-(1-(m-tolyl)-1H-indazol-6-yl)butanamide hydrochloride], the 50% inhibitory concentration (IC50) was determined as 0.86 µM.

For `Cc1cccc(-n2ncc3ccc(NC(=O)C[C@H](N)CO)cc32)c1` [Compound 11, (S)-3-amino-4-hydroxy-N-(1-(m-tolyl)-1H-indazol-6-yl)butanamide hydrochloride], the half-inhibitory concentration (IC50) stood at 1.2 µM. The figure for `Cc1cccc(-n2ncc3c(F)cc(NC(=O)[C@@H](N)CO)cc32)c1` [Compound 23, (S)-2-amino-N-(4-fluoro-1-(m-tolyl)-1H-indazol-6-yl)-3-hydroxypropanamide hydrochloride] is 0.024 µM. The figure for `Cc1cccc(-n2ncc3ccc(NC(=O)[C@H](N)CN)cc32)c1` [Compound 14, (R)-2,3-diamino-N-(1-(m-tolyl)-1H-indazol-6-yl)propanamide dihydrochloride] is 1.1 µM. On to `Cc1cccc(-n2ncc3ccc(NC(=O)[C@@H](N)CCO)cc32)c1` [Compound 10, (S)-2-amino-4-hydroxy-N-(1-(m-tolyl)-1H-indazol-6-yl)butanamide hydrochloride], for which the IC50 is 0.4 µM. On to `Cc1cccc(-n2ncc3ccc(NC(=O)[C@@H](N)CN)cc32)c1` [Compound 15, (S)-2,3-diamino-N-(1-(m-tolyl)-1H-indazol-6-yl)propanamide dihydrochloride], for which the concentration for half-maximal inhibition (IC50) was 0.63 µM.

In the case of `CC(=O)OC[C@H](NC(=O)OC(C)C)C(=O)Nc1ccc2cnn(-c3cccc(C)c3)c2c1` [Compound 31, (S)-2-((isopropoxycarbonyl)amino)-3-oxo-3-((1-(m-tolyl)-1H-indazol-6-yl)amino)propyl acetate], the concentration for half-maximal inhibition (IC50) came out at 30 µM.

In the case of `CCOC(=O)N[C@@H](COC(=O)c1cccnc1)C(=O)Nc1ccc2cnn(-c3cccc(C)c3)c2c1` [Compound 32, (S)-2-((ethyloxycarbonyl)amino)-3-oxo-3-((1-(m-tolyl)-1H-indazol-6-yl)amino)propyl nicotinate], the IC50 was above 1000 µM. On to `CCc1nn(-c2cccc(C)c2)c2cc(NC(=O)[C@@H](N)CO)ccc12` [Compound 43, (S)-2-amino-N-(3-ethyl-1-(m-tolyl)-1H-indazol-6-yl)-3-hydroxypropanamide hydrochloride], for which the IC50 came out at 1.86 µM. The value for `Cc1cccc(-n2ncc3ccc(NC(=O)[C@H](N)CO)cc32)c1` [Compound 2, (R)-2-amino-3-hydroxy-N-(1-(m-tolyl)-1H-indazol-6-yl)propanamide hydrochloride] was 0.12 µM; that for `Cc1cccc(-n2ncc3ccc(NC(=O)[C@@H](N)CO)cc32)c1` [Compound 3, (S)-2-amino-3-hydroxy-N-(1-(m-tolyl)-1H-indazol-6-yl)propanamide hydrochloride] was 0.04 µM. As to `Cc1cccc(-n2ncc3ccc(NC(=O)[C@@H](N)[C@H](C)O)cc32)c1` [Compound 17, (2S,3S)-2-amino-3-hydroxy-N-(1-(m-tolyl)-1H-indazol-6-yl)butanamide hydrochloride], the 50% inhibitory concentration (IC50) worked out at 7 µM. Regarding `Cc1cccc(-n2ncc3ccc(NC(=O)C(CN)C(C)C)cc32)c1` (stereo not drawn) [Compound 8, 2-(aminomethyl)-3-methyl-N-(1-(m-tolyl)-1H-indazol-6-yl)butanamide hydrochloride], the IC50 turned out to be 4.9 µM.

Take `CC(=O)OC[C@H](N)C(=O)Nc1ccc2cnn(-c3cccc(C)c3)c2c1` [Compound 41, (S)-2-amino-3-oxo-3-((1-(m-tolyl)-1H-indazol-6-yl)amino)propyl acetate hydrochloride]: the IC50 came out at 2.7 µM. Turning to `Cc1cccc(-n2ncc3ncc(NC(=O)[C@@H](N)CO)cc32)c1` [Compound 45, (S)-2-amino-3-hydroxy-N-(1-(m-tolyl)-1H-pyrazolo[4,3-b]pyridin-6-yl)propanamide hydrochloride], the IC50 was determined as 0.25 µM. For `CCOC(=O)N[C@@H](COC(C)=O)C(=O)Nc1ccc2cnn(-c3cccc(C)c3)c2c1` [Compound 30, (S)-2-((ethyloxycarbonyl)amino)-3-oxo-3-((1-(m-tolyl)-1H-indazol-6-yl)amino)propyl acetate], the IC50 came out at 24 µM. `Cc1cccc(-n2ncc3ccc(NC(=O)C(N)CO)cc32)c1` (stereo not drawn) [Compound 1, 2-amino-3-hydroxy-N-(1-(m-tolyl)-1H-indazol-6-yl)propanamide hydrochloride]: the concentration for half-maximal inhibition (IC50) worked out at 0.12 µM. `Cc1cccc(-n2ncc3ccc(NC(=O)[C@@H](N)C(C)(C)O)cc32)c1` [Compound 21, (S)-2-amino-3-hydroxy-3-methyl-N-(1-(m-tolyl)-1H-indazol-6-yl]butanamide hydrochloride]: the 50% inhibitory concentration (IC50) was found to be 3.6 µM.

For the compound `Cc1cccc(-n2ncc3ccc(NC(=O)[C@H](C)N)cc32)c1` [Compound 6, (S)-2-amino-N-(1-(m-tolyl)-1H-indazol-6-yl)propanamide hydrochloride], the half-maximal inhibitory concentration (IC50) amounted to 0.11 µM.

`Cc1cccc(-n2ncc3ccc(NC(=O)[C@H]4C[C@@H](N)C4)cc32)c1` [Compound 16, (cis)-3-amino-N-(1-(m-tolyl)-1H-indazol-6-yl)cyclobutanecarboxamide hydrochloride]: the IC50 was 0.6 µM. As to `Cc1cccc(-n2ncc3cnc(NC(=O)[C@@H](N)CO)cc32)c1` [Compound 44, (S)-2-amino-3-hydroxy-N-(1-(m-tolyl)-1H-pyrazolo[4,3-c]pyridin-6-yl)propanamide hydrochloride], the IC50 came out at 15 µM. Turning to `Cc1cccc(-n2ncc3ccc(NC(=O)[C@@H](N)COC(=O)c4cccnc4)cc32)c1` [Compound 25, (S)-2-amino-3-oxo-3-((1-(m-tolyl)-1H-indazol-6-yl)amino)propyl nicotinate hydrochloride], the IC50 was above 1000 µM. As for `Cc1cccc(-n2ncc3ccc(NC(=O)[C@H](COC(=O)c4cccnc4)NC(=O)OC(C)C)cc32)c1` [Compound 33, (S)-2-((isopropoxycarbonyl)amino)-3-oxo-3-((1-(m-tolyl)-1H-indazol-6-yl)amino)propyl nicotinate], the IC50 was above 1000 µM. Regarding `Cc1cccc(-n2ncc3ccc(NC(=O)[C@@H](N)CCN)cc32)c1` [Compound 13, (S)-2,4-diamino-N-(1-(m-tolyl)-1H-indazol-6-yl)butanamide], the IC50 amounted to 0.35 µM. The value for `Cc1cccc(-n2ncc3ccc(NC(=O)[C@H]4NCC[C@@H]4O)cc32)c1` [Compound 18, (2S,3S)-3-hydroxy-N-(1-(m-tolyl)-1H-indazol-6-yl)pyrrolidine-2-carboxamide hydrochloride] was 0.7 µM.

Regarding `CCCCCCCC(=O)OC[C@H](NC(=O)OC(C)C)C(=O)Nc1ccc2cnn(-c3cccc(C)c3)c2c1` [Compound 35, (S)-2-((isoproxycarbonyl)amino)-3-oxo-3-((1-(m-tolyl)-1H-indazol-6-yl)amino)propyl octanoate], the concentration for half-maximal inhibition (IC50) was 200 µM. As to `CCCCCCCC(=O)OC[C@H](N)C(=O)Nc1cc(F)c2cnn(-c3cccc(C)c3)c2c1` [Compound 26, (S)-2-amino-3-((4-fluoro-1-(m-tolyl)-1H-indazol-6-yl)amino)-3-oxopropyl octanoate hydrochloride], the IC50 was 8 µM.

As usually defined, the IC50 is the concentration at which inhibition is half-maximal.
